ChEMBL document CHEMBL1201862, “PubChem BioAssay data set” (2004)
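Test compounds were applied to cells in 96-well plates for 48 hours at 5 doses. GI50 = concentration required for 50% inhibition of growth.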 The source made the active and inactive calls. No stated cut-off is given here; in the data, active = GI50 up to about 1.1 µM and inactive = higher.

Tests used:
Assay in all cases: growth of human tumour cells (NCI), 48 h
SK-MEL-2 = tested on: SK-MEL-2
COLO 205 = tested on: COLO 205
CAKI-1 = tested on: CAKI-1
HCC 2998 = tested on: HCC 2998
EKVX = tested on: EKVX
OVCAR-5 = tested on: OVCAR-5
UACC-257 = tested on: UACC-257
KM12 = tested on: KM12
T47D = tested on: T47D
SNB-75 = tested on: SNB-75
M14 = tested on: M14
OVCAR-4 = tested on: OVCAR-4
OVCAR-8 = tested on: OVCAR-8
TK-10 = tested on: TK-10
NCI-H23 = tested on: NCI-H23
SN12C = tested on: SN12C
HT-29 = tested on: HT-29
HOP-62 = tested on: HOP-62

Measured: GI50

O=C(/C=C/c1ccc(-c2ccccc2[N+](=O)[O-])o1)NCc1ccc(C(=O)NCCc2ccccc2)cc1
inactive: SK-MEL-2 21.2 µM | COLO 205 > 100 µM | CAKI-1 > 100 µM | HCC 2998 > 100 µM | EKVX > 100 µM | OVCAR-5 > 100 µM | UACC-257 46.7 µM | KM12 > 100 µM | T47D > 100 µM | SNB-75 > 100 µM | M14 > 100 µM | OVCAR-4 > 100 µM | OVCAR-8 > 100 µM | TK-10 > 100 µM | NCI-H23 > 100 µM | SN12C > 100 µM | HT-29 > 100 µM | HOP-62 > 100 µM

O=C(CC(=O)N1N=C(N(c2ccccc2)c2ccccc2)CC1c1ccccc1)Nc1ccc(Cl)cc1 (centres undefined)
inactive: SK-MEL-2 > 100 µM | COLO 205 > 100 µM | CAKI-1 > 100 µM | HCC 2998 > 100 µM | EKVX > 100 µM | OVCAR-5 > 100 µM | UACC-257 > 100 µM | KM12 > 100 µM | T47D > 100 µM | SNB-75 94 µM | M14 > 100 µM | OVCAR-4 > 100 µM | OVCAR-8 > 100 µM | TK-10 > 100 µM | NCI-H23 > 100 µM | SN12C > 100 µM | HT-29 > 100 µM | HOP-62 > 100 µM

C=C1C2CC(OC(C)=O)C3(C)C(c4ccoc4)OC(=O)[C@@H](O)[C@]13OC1C[C@H](OC(C)=O)C(C)(C)[C@H](C(O)C(=O)OC)[C@]12C (some centres undefined)
inactive: SK-MEL-2 > 100 µM | COLO 205 > 100 µM | HCC 2998 > 100 µM | EKVX > 100 µM | KM12 > 100 µM | SNB-75 29.9 µM | M14 > 100 µM | OVCAR-4 > 100 µM | OVCAR-8 > 100 µM | TK-10 > 100 µM | NCI-H23 > 100 µM | SN12C > 100 µM | HT-29 > 100 µM

O=CN1CCN(C(=O)c2ccc(Cl)c(Cl)c2)C1=S
inactive: SK-MEL-2 15.3 µM | COLO 205 20 µM | CAKI-1 14.9 µM | HCC 2998 18.5 µM | EKVX 17.5 µM | OVCAR-5 16.9 µM | UACC-257 17.7 µM | KM12 15.7 µM | T47D 15.3 µM | SNB-75 17.5 µM | M14 16.8 µM | OVCAR-4 18.2 µM | OVCAR-8 15 µM | TK-10 16.5 µM | NCI-H23 20.9 µM | SN12C 13.6 µM | HT-29 19.4 µM | HOP-62 16.1 µM

O=C(Cc1nc2c3c(ccc2nc1O)C(=O)c1ccccc1C3=O)C(=O)Nc1ccccc1[N+](=O)[O-]
inactive: SK-MEL-2 19.1 µM | COLO 205 15.2 µM | CAKI-1 21.5 µM | HCC 2998 19.1 µM | EKVX 17.5 µM | OVCAR-5 21.5 µM | UACC-257 17.7 µM | KM12 18.7 µM | M14 16.3 µM | OVCAR-4 13.2 µM | OVCAR-8 17.1 µM | TK-10 24.2 µM | NCI-H23 18.5 µM | SN12C > 10 µM | HT-29 19.5 µM | HOP-62 18.3 µM

Cc1cccc(NC(=S)Nc2ccc([N+](=O)[O-])cc2)n1
inactive: SK-MEL-2 > 100 µM | COLO 205 > 100 µM | CAKI-1 > 100 µM | HCC 2998 > 100 µM | EKVX > 100 µM | UACC-257 > 100 µM | KM12 > 100 µM | T47D > 100 µM | SNB-75 > 100 µM | M14 > 100 µM | OVCAR-4 > 100 µM | OVCAR-8 > 100 µM | TK-10 > 100 µM | NCI-H23 > 100 µM | HT-29 > 100 µM | HOP-62 > 100 µM

Nc1ccc(S(=O)(=O)c2ccc(/N=[N+](\[O-])c3ccc(S(=O)(=O)c4ccc(N)cc4)cc3)cc2)cc1
inactive: SK-MEL-2 > 49.1 µM | COLO 205 > 100 µM | CAKI-1 86.9 µM | HCC 2998 > 100 µM | EKVX 50 µM | OVCAR-5 > 100 µM | UACC-257 > 91.8 µM | KM12 > 100 µM | T47D > 48 µM | SNB-75 8.02 µM | M14 99.3 µM | OVCAR-4 19.4 µM | OVCAR-8 41.2 µM | TK-10 > 44.1 µM | NCI-H23 34.8 µM | SN12C > 68.9 µM | HT-29 > 100 µM | HOP-62 20.4 µM

Cc1cc(NCCCCCCCCNc2cc(C)nc3cc(N(C)C)ccc23)c2ccc(N(C)C)cc2n1
inactive: SK-MEL-2 5.13 µM | COLO 205 1.9 µM | CAKI-1 24.3 µM | HCC 2998 4.3 µM | EKVX 7.1 µM | UACC-257 3.94 µM | KM12 2.82 µM | M14 3.73 µM | OVCAR-4 4.88 µM | OVCAR-8 6.11 µM | TK-10 > 10 µM | NCI-H23 1.43 µM | SN12C 1.64 µM | HOP-62 12.2 µM

COc1cc(C2C3=C(NC(=O)C2C#N)c2ccc4ccccc4c2OCC3)cc(OC)c1OC (centres undefined)
inactive: SK-MEL-2 22.1 µM | COLO 205 15.4 µM | CAKI-1 20.1 µM | HCC 2998 25 µM | EKVX 89.7 µM | OVCAR-5 17.6 µM | UACC-257 56.5 µM | KM12 44.9 µM | T47D 12.2 µM | SNB-75 16.2 µM | M14 50 µM | OVCAR-4 48 µM | OVCAR-8 86.7 µM | TK-10 > 100 µM | NCI-H23 41.3 µM | SN12C 18.1 µM | HT-29 33 µM | HOP-62 20 µM

CCCCCCCCCCCCCCCCCCCCCC(=O)Nc1ccn(C2OC(CO)C(O)C2O)c(=O)n1 (centres undefined)
inactive: SK-MEL-2 > 100 µM | COLO 205 > 54.2 µM | CAKI-1 > 31.6 µM | HCC 2998 > 100 µM | EKVX > 100 µM | OVCAR-5 > 61 µM | UACC-257 > 100 µM | KM12 > 100 µM | SNB-75 > 83.6 µM | M14 4.91 µM | OVCAR-4 > 100 µM | OVCAR-8 12.4 µM | TK-10 > 100 µM | NCI-H23 3.1 µM | SN12C > 60.8 µM | HT-29 > 100 µM | HOP-62 3.11 µM

N#Cc1nc(-c2cccnc2)oc1N
inactive: SK-MEL-2 > 100 µM | COLO 205 > 100 µM | CAKI-1 > 100 µM | HCC 2998 > 100 µM | EKVX > 100 µM | OVCAR-5 > 100 µM | UACC-257 > 100 µM | KM12 > 100 µM | OVCAR-4 > 100 µM | TK-10 > 100 µM | SN12C > 100 µM | HT-29 > 100 µM | HOP-62 > 100 µM

CC(SC(=S)N(C)C)C(=O)Nc1nnc(-c2ccc(Cl)cc2)o1 (centres undefined)
inactive: SK-MEL-2 30.8 µM | COLO 205 33.3 µM | HCC 2998 > 100 µM | OVCAR-5 56.4 µM | UACC-257 65.9 µM | T47D 44.8 µM | SNB-75 41.5 µM | M14 37.1 µM | OVCAR-4 44.7 µM | OVCAR-8 49.7 µM | TK-10 80.2 µM | NCI-H23 54.2 µM | SN12C 33.7 µM | HT-29 24 µM | HOP-62 51.2 µM
